Measured values from patent publication US9340590B2 (priority 2011, dated 2016).
Positions of bridges follow the written chain, without caps; N, C: chain ends. Non-standard residues stand in square brackets, D forms with d. Residues, ends and D or L forms follow the SMILES beside them. Trp(1-Me) = Cn1cc(C[C@H](N)C(=O)O)c2ccccc21

Key:
Experiment in all cases: cell-based
hNav1.5 = hNav1.5 (Homo sapiens, UniProt Q14524)
hNav1.3 = hNav1.3 (Homo sapiens, UniProt Q9NY46); format: cell-based; conditions: Nav1.3 Use IC50
hNav1.3, sequence (Q9NY46 whole entry, looked up): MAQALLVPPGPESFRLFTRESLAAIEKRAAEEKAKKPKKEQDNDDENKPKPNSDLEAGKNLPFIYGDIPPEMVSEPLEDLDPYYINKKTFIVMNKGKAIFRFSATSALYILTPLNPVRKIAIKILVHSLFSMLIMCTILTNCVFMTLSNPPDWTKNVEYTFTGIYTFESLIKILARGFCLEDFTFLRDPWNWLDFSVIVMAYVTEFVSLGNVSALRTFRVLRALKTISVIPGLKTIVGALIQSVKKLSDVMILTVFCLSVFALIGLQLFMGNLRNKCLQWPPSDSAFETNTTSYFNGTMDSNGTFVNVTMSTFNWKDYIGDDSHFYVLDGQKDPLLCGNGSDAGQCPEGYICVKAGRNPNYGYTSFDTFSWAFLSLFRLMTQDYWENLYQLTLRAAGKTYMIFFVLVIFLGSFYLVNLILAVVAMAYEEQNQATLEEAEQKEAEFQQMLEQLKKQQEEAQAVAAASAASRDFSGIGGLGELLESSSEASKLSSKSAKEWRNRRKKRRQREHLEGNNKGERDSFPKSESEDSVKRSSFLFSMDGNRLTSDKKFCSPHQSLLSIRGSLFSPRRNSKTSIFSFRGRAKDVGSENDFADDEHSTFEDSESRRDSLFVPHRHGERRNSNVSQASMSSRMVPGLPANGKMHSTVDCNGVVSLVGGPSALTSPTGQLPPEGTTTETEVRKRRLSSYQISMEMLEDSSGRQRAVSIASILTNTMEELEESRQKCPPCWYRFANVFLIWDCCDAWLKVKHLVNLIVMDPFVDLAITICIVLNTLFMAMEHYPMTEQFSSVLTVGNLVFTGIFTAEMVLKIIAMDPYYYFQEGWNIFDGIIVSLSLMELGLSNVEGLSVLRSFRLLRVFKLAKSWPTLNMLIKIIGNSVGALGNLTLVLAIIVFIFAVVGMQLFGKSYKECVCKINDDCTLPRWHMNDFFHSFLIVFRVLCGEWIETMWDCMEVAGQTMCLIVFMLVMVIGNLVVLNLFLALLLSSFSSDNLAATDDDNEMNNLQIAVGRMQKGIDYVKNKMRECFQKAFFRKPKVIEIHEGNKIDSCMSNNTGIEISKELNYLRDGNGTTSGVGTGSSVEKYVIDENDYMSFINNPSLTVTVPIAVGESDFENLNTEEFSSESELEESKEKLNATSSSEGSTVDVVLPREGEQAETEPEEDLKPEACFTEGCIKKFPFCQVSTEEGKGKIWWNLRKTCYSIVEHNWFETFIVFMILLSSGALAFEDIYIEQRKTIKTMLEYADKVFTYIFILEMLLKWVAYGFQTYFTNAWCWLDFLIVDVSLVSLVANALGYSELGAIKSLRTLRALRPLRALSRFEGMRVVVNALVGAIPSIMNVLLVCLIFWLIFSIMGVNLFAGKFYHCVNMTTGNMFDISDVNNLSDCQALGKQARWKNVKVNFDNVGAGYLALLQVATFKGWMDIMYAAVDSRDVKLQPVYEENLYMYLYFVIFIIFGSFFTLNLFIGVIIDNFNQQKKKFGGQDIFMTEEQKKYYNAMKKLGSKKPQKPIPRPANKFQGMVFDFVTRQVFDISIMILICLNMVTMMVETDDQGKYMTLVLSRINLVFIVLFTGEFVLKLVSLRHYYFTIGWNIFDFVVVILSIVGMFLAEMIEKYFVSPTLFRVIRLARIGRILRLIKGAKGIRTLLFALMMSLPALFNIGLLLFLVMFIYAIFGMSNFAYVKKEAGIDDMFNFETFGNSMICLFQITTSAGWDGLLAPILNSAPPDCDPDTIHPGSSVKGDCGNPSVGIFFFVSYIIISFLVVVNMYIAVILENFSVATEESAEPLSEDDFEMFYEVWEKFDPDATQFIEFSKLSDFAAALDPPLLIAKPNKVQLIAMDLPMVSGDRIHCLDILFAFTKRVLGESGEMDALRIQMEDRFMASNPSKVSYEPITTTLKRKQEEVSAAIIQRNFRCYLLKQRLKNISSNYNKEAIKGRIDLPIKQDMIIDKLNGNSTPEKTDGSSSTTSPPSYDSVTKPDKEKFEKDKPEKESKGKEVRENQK

hNav1.7 = hNav1.7 (Homo sapiens, UniProt Q15858); conditions: Nav1.7 Use IC50
hNav1.7, sequence (Q15858 whole entry, looked up): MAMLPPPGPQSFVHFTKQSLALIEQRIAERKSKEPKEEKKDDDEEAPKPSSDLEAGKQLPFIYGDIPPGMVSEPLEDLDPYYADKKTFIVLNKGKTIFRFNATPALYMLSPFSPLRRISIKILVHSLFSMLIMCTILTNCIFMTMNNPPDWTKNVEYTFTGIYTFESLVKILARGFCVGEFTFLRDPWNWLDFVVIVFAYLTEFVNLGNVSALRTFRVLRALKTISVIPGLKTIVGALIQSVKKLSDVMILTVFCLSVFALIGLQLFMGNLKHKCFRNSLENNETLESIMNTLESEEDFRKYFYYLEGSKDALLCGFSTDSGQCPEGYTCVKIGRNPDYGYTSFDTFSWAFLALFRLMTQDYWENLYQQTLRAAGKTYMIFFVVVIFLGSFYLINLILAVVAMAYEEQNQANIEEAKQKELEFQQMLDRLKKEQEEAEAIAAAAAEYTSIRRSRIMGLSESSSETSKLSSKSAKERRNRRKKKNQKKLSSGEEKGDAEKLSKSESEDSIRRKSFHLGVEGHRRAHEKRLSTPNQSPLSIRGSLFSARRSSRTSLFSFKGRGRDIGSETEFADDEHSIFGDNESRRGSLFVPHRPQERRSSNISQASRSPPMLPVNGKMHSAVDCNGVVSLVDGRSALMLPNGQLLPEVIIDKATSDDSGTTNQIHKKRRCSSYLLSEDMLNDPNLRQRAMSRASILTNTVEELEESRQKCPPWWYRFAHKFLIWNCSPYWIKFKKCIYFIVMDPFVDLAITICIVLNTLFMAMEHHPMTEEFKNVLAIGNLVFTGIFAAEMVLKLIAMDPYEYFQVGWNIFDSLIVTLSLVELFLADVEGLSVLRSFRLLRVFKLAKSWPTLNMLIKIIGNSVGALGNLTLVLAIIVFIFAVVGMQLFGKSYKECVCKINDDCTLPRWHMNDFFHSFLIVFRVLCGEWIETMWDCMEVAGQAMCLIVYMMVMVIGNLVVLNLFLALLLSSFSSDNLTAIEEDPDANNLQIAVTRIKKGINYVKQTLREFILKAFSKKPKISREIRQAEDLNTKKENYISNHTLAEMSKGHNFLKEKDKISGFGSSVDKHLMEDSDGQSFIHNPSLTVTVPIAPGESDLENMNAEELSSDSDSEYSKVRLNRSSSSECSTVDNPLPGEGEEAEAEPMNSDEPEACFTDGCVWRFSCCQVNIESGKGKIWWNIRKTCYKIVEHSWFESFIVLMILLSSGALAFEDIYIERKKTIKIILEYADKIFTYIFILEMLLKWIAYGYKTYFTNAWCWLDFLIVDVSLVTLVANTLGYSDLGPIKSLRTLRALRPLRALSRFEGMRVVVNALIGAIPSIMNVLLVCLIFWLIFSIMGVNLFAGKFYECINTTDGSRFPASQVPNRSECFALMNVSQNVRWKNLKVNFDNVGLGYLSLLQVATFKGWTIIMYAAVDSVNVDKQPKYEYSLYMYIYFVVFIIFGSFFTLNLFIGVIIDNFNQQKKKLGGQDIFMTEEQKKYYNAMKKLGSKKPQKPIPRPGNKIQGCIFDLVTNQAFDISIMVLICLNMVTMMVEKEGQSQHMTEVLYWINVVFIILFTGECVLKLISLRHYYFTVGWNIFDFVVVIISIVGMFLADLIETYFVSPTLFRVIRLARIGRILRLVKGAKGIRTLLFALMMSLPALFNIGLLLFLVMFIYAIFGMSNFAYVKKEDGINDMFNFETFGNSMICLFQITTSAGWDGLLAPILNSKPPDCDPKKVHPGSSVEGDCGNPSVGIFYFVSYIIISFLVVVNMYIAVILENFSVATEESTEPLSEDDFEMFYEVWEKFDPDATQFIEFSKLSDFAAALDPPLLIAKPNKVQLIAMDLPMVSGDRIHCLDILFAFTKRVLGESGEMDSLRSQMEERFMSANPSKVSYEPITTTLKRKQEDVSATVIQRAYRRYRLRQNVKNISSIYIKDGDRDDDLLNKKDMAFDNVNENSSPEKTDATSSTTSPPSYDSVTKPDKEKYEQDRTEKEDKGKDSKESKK

| Compound | IC50 (hNav1.5) | IC50 (hNav1.3) | IC50 (hNav1.7) |
| --- | --- | --- | --- |
| CC[C@H](C)[C@@H]1NC(=O)[C@@H]2CSSC[C@@H]3NC(=O)[C@H](C(C)C)NC(=O)[C@H](CC(C)C)NC(=O)[C@H](CC(N)=O)NC(=O)[C@@H]4CCCN4C(=O)[C@H](CCCNC(=N)N)NC(=O)[C@H](CSSC[C@H](NC(=O)[C@@H](N)CC(=O)O)C(=O)N[C@@H](CC(C)C)C(=O)NCC(=O)N[C@@H](Cc4ccccc4)C(=O)N[C@@H](CCSC)C(=O)N[C@@H](CCCNC(=N)N)C(=O)N[C@@H](CCCCN)C(=O)N2)NC(=O)[C@H](CSSC[C@@H](C(=O)N[C@@H](CCCCN)C(=O)N[C@@H](Cc2cn(C)c4ccccc24)C(=O)N[C@H](C(=O)N[C@@H](Cc2ccccc2)C(N)=O)C(C)C)NC(=O)[C@H](Cc2c[nH]c4ccccc24)NC(=O)[C@H](CCCCN)NC(=O)[C@H](Cc2c[nH]cn2)NC(=O)[C@H]([C@@H](C)O)NC(=O)[C@H](CCCNC(=N)N)NC(=O)[C@H](CO)NC3=O)NC(=O)[C@H](CCCCN)NC(=O)[C@H](CC(=O)O)NC(=O)[C@H](CC(N)=O)NC(=O)[C@H](CC(=O)O)NC(=O)[C@@H]2CCCN2C1=O [[1′NMeW32]GpTx-1(1-34)] (H-DCLGFMRKCIPDNDKCCRPNLVCSRTHKWCK[Trp(1-Me)]VF-NH2; disulfide 2-17, 9-23, 16-30) | 6850 nM | 18 nM | 6 nM |
| CC[C@H](C)[C@@H]1NC(=O)[C@@H]2CSSC[C@@H]3NC(=O)[C@H](C(C)C)NC(=O)[C@H](CC(C)C)NC(=O)[C@H](CC(N)=O)NC(=O)[C@@H]4CCCN4C(=O)[C@H](CCCNC(=N)N)NC(=O)[C@H](CSSC[C@H](NC(=O)[C@@H](N)CC(=O)O)C(=O)N[C@@H](CC(C)C)C(=O)NCC(=O)N[C@@H](Cc4ccccc4)C(=O)N[C@@H](CCSC)C(=O)N[C@@H](CCCNC(=N)N)C(=O)N[C@@H](CCCCN)C(=O)N2)NC(=O)[C@H](CSSC[C@@H](C(=O)N[C@@H](CCCCN)C(=O)N[C@@H](Cc2ccc(O)cc2)C(=O)N[C@@H](Cc2cn(C)c4ccccc24)C(=O)N[C@@H](Cc2ccccc2)C(N)=O)NC(=O)[C@H](Cc2c[nH]c4ccccc24)NC(=O)[C@H](CCCCN)NC(=O)[C@H](Cc2c[nH]cn2)NC(=O)[C@H]([C@@H](C)O)NC(=O)[C@H](CCCNC(=N)N)NC(=O)[C@H](CO)NC3=O)NC(=O)[C@H](CCCCN)NC(=O)[C@H](CC(=O)O)NC(=O)[C@H](CC(N)=O)NC(=O)[C@H](CC(=O)O)NC(=O)[C@@H]2CCCN2C1=O [[1′NMeW33]GpTx-1(1-34)] (H-DCLGFMRKCIPDNDKCCRPNLVCSRTHKWCKY[Trp(1-Me)]F-NH2; disulfide 2-17, 9-23, 16-30) | 9540 nM | 37 nM | 54 nM |
| CC[C@H](C)[C@@H]1NC(=O)[C@@H]2CSSC[C@@H]3NC(=O)[C@H](C(C)C)NC(=O)[C@H](CC(C)C)NC(=O)[C@H](CC(N)=O)NC(=O)[C@@H]4CCCN4C(=O)[C@H](CCCNC(=N)N)NC(=O)[C@H](CSSC[C@H](NC(=O)[C@@H](N)CC(=O)O)C(=O)N[C@@H](CC(C)C)C(=O)NCC(=O)N[C@@H](C)C(=O)N[C@@H](Cc4cccc5ccccc45)C(=O)N[C@@H](CCCNC(=N)N)C(=O)N[C@@H](CCCCN)C(=O)N2)NC(=O)[C@H](CSSC[C@@H](C(=O)N[C@@H](CCCCN)C(=O)N[C@@H](Cc2ccc(O)cc2)C(=O)N[C@H](C(=O)N[C@@H](Cc2ccccc2)C(N)=O)C(C)C)NC(=O)[C@H](Cc2c[nH]c4ccccc24)NC(=O)[C@H](CCCCN)NC(=O)[C@H](Cc2cnc[nH]2)NC(=O)[C@H]([C@@H](C)O)NC(=O)[C@H](CCCNC(=N)N)NC(=O)[C@H](CO)NC3=O)NC(=O)[C@H](CCCCN)NC(=O)[C@H](CC(=O)O)NC(=O)[C@H](CC(N)=O)NC(=O)[C@H](CC(=O)O)NC(=O)[C@@H]2CCCN2C1=O [[Ala5;1-Nal6]GpTx-1(1-34)] | 3810 nM | 8 nM | 2 nM |
